Experimental data published in ChEMBL document CHEMBL1275569, “Plasmid-mediated 16S rRNA methylases among extended-spectrum beta-lactamase-producing Enterobacteriaceae isolates” (2008).
In brackets after ≈: the same amount, converted by molar mass.

What was measured:
[1] = tested on: Enterobacter cloacae; experiment: Antimicrobial activity against armA positive Enterobacter cloacae BEH producing beta lactamase CTX-M-3 by Etest method; format: functional
[2] = tested on: Escherichia coli; experiment: Antimicrobial activity against armA positive Escherichia coli TOP10 producing beta lactamase CTX-M-3 with plasmid MEZ by Etest method; format: functional
[3] = tested on: Escherichia coli; experiment: Antimicrobial activity against armA positive Escherichia coli TOP10 producing beta lactamase CTX-M-3 with plasmid BEH by Etest method; format: functional
[4] = tested on: Escherichia coli; experiment: Antimicrobial activity against armA positive Escherichia coli MEZ producing beta lactamase CTX-M-3 by Etest method; format: functional
[5] = tested on: Escherichia coli; experiment: Antimicrobial activity against beta lactamase CTX-M-14 producing Escherichia coli TOP10 harboring plasmid COP2 by Etest method; format: functional
[6] = tested on: Escherichia coli; experiment: Antimicrobial activity against armA positive Escherichia coli COP producing beta lactamase CTX-M-14 by Etest method
[7] = tested on: Klebsiella pneumoniae; experiment: Antimicrobial activity against armA positive Klebsiella pneumoniae DU producing beta lactamase CTX-M-3 by Etest method; format: functional
[8] = tested on: Escherichia coli; experiment: Antimicrobial activity against armA positive Escherichia coli TOP10 producing beta lactamase CTX-M-3 with plasmid DU by Etest method; format: functional
[9] = tested on: Escherichia coli; experiment: Antimicrobial activity against rmtB positive Escherichia coli VOG producing beta lactamase CTX-M-14 by Etest method; format: functional
[10] = tested on: Escherichia coli; experiment: Antimicrobial activity against Escherichia coli TOP10 harboring plasmid VOG2 expressing CTX-M-14 and AAC(6 )-Ib gene by Etest method; format: functional
[11] = tested on: Escherichia coli; experiment: Antimicrobial activity against Escherichia coli TOP10 by Etest method; format: functional
[12] = tested on: Escherichia coli; experiment: Antimicrobial activity against armA positive Escherichia coli TOP10 harboring plasmid COP1 by Etest method; format: functional
[13] = tested on: Escherichia coli; experiment: Antimicrobial activity against Escherichia coli TOP10 harboring plasmid VOG1 expressing RmtB, TEM-1, and QepA gene by Etest method; format: functional

Molecule: NCC[C@H](O)C(=O)N[C@@H]1C[C@H](N)[C@@H](O[C@H]2O[C@H](CN)[C@@H](O)[C@H](O)[C@H]2O)[C@H](O)[C@H]1O[C@H]1O[C@H](CO)[C@@H](O)[C@H](N)[C@H]1O [AMIKACIN]
- MIC [1]: > 256 mg/L
- MIC [2]: > 256 mg/L
- MIC [3]: > 256 mg/L
- MIC [4]: > 256 mg/L
- MIC [5]: 1 mg/L (≈ 1.71 µM)
- MIC [6]: > 256 mg/L
- MIC [7]: > 256 mg/L
- MIC [8]: > 256 mg/L
- MIC [9]: > 256 mg/L
- MIC [10]: 1.5 mg/L (≈ 2.56 µM)
- MIC [11]: 1 mg/L (≈ 1.71 µM)

Molecule: CO/N=C(\C(=O)N[C@@H]1C(=O)N2C(C(=O)O)=C(COC(C)=O)CS[C@H]12)c1csc(N)n1 [CEFOTAXIME]
- MIC [1]: > 32 mg/L
- MIC [2]: > 32 mg/L
- MIC [12]: 0.047 mg/L (≈ 0.103 µM)
- MIC [3]: > 32 mg/L
- MIC [4]: > 32 mg/L
- MIC [5]: 8 mg/L (≈ 17.6 µM)
- MIC [6]: > 32 mg/L
- MIC [7]: > 32 mg/L
- MIC [13]: 0.047 mg/L (≈ 0.103 µM)
- MIC [8]: > 32 mg/L
- MIC [9]: > 32 mg/L
- MIC [11]: 0.047 mg/L (≈ 0.103 µM)

Molecule: CC(C)(O/N=C(\C(=O)N[C@@H]1C(=O)N2C(C(=O)[O-])=C(C[n+]3ccccc3)CS[C@H]12)c1csc(N)n1)C(=O)O [CEFTAZIDIME]
- MIC [1]: 16 mg/L (≈ 29.3 µM)
- MIC [2]: 3 mg/L (≈ 5.49 µM)
- MIC [12]: 0.38 mg/L (≈ 0.695 µM)
- MIC [3]: 8 mg/L (≈ 14.6 µM)
- MIC [4]: 3 mg/L (≈ 5.49 µM)
- MIC [5]: 1 mg/L (≈ 1.83 µM)
- MIC [6]: 1 mg/L (≈ 1.83 µM)
- MIC [7]: 2 mg/L (≈ 3.66 µM)
- MIC [13]: 0.38 mg/L (≈ 0.695 µM)
- MIC [8]: 2 mg/L (≈ 3.66 µM)
- MIC [9]: 6 mg/L (≈ 11 µM)
- MIC [10]: 2 mg/L (≈ 3.66 µM)
- MIC [11]: 0.38 mg/L (≈ 0.695 µM)

Molecule: O=C(O)c1cn(C2CC2)c2cc(N3CCNCC3)c(F)cc2c1=O [CIPROFLOXACIN]
- MIC [2]: < 0.002 mg/L
- MIC [3]: < 0.002 mg/L
- MIC [4]: > 32 mg/L
- MIC [6]: > 32 mg/L
- MIC [7]: 0.125 mg/L (≈ 0.377 µM)
- MIC [8]: < 0.002 mg/L
- MIC [9]: > 32 mg/L
- MIC [11]: < 0.002 mg/L

Molecule: C[C@@H](O)[C@H]1C(=O)N2C(C(=O)O)=C(SCCNC=N)C[C@H]12 [IMIPENEM ANHYDROUS]
- MIC [1]: 0.19 mg/L (≈ 0.635 µM)
- MIC [2]: 0.19 mg/L (≈ 0.635 µM)
- MIC [12]: 0.19 mg/L (≈ 0.635 µM)
- MIC [3]: 0.19 mg/L (≈ 0.635 µM)
- MIC [4]: 0.19 mg/L (≈ 0.635 µM)
- MIC [5]: 0.19 mg/L (≈ 0.635 µM)
- MIC [6]: 0.19 mg/L (≈ 0.635 µM)
- MIC [7]: 0.19 mg/L (≈ 0.635 µM)
- MIC [13]: 0.19 mg/L (≈ 0.635 µM)
- MIC [8]: 0.19 mg/L (≈ 0.635 µM)
- MIC [9]: 0.19 mg/L (≈ 0.635 µM)
- MIC [10]: 0.19 mg/L (≈ 0.635 µM)
- MIC [11]: 0.19 mg/L (≈ 0.635 µM)

Molecule: CCN[C@@H]1C[C@H](N)[C@@H](O[C@H]2OC(CN)=CC[C@H]2N)[C@H](O)[C@H]1O[C@H]1OC[C@](C)(O)[C@H](NC)[C@H]1O [NETILMICIN]
- MIC [1]: > 256 mg/L
- MIC [2]: > 256 mg/L
- MIC [3]: > 256 mg/L
- MIC [4]: > 256 mg/L
- MIC [5]: 0.125 mg/L (≈ 0.263 µM)
- MIC [6]: > 256 mg/L
- MIC [7]: > 256 mg/L
- MIC [8]: > 256 mg/L
- MIC [9]: > 256 mg/L
- MIC [10]: 1.5 mg/L (≈ 3.15 µM)
- MIC [11]: 0.25 mg/L (≈ 0.526 µM)

Molecule: CCn1cc(C(=O)O)c(=O)c2cc(F)c(N3CCNCC3)cc21 [NORFLOXACIN]
- MIC [1]: 1 mg/L (≈ 3.13 µM)
- MIC [2]: 0.016 mg/L (≈ 0.0501 µM)
- MIC [12]: < 0.016 mg/L
- MIC [3]: 0.016 mg/L (≈ 0.0501 µM)
- MIC [4]: > 256 mg/L
- MIC [5]: < 0.016 mg/L
- MIC [6]: > 256 mg/L
- MIC [7]: 0.75 mg/L (≈ 2.35 µM)
- MIC [13]: 0.032 mg/L (≈ 0.1 µM)
- MIC [8]: 0.016 mg/L (≈ 0.0501 µM)
- MIC [9]: > 256 mg/L
- MIC [10]: < 0.016 mg/L
- MIC [11]: < 0.016 mg/L

Molecule: NC[C@H]1O[C@H](O[C@H]2[C@H](O)[C@@H](O[C@H]3O[C@H](CO)[C@@H](O)[C@H](N)[C@H]3O)[C@H](N)C[C@@H]2N)[C@H](N)C[C@@H]1O [TOBRAMYCIN]
- MIC [1]: > 256 mg/L
- MIC [2]: > 256 mg/L
- MIC [3]: > 256 mg/L
- MIC [4]: > 256 mg/L
- MIC [5]: 0.19 mg/L (≈ 0.406 µM)
- MIC [6]: > 256 mg/L
- MIC [7]: > 256 mg/L
- MIC [8]: > 256 mg/L
- MIC [9]: > 256 mg/L
- MIC [10]: 3 mg/L (≈ 6.42 µM)
- MIC [11]: 0.38 mg/L (≈ 0.813 µM)

Molecule: GENTAMICIN
- MIC [1]: > 256 mg/L
- MIC [2]: > 256 mg/L
- MIC [12]: > 256 mg/L
- MIC [3]: > 256 mg/L
- MIC [4]: > 256 mg/L
- MIC [5]: 0.125 mg/L
- MIC [7]: > 256 mg/L
- MIC [13]: > 256 mg/L
- MIC [8]: > 256 mg/L
- MIC [9]: > 256 mg/L
- MIC [10]: 0.25 mg/L
- MIC [11]: 0.25 mg/L
